Biological target: human recombinant 5-HT2C receptor (Homo sapiens (Human), UniProt P28335)
Experiment: 5-HT2C receptor binding inhibition test ([3H]-Mesulergine)
Conditions: Jump-In HEK cell membrane, 37° C. 2 hours, read-out: h-5-HT2C Ki
Method: Test Example 2: 5-HT2C Receptor Binding Inhibition Test
(§1) (Each Experimental Condition)
Cell membrane: 0.5 μg of Jump-In HEK cell membrane (expressing human recombinant 5-HT2C receptor) per well
(§2) Assay buffer: Tris-HCl 50 mmol/L (pH 7.4) containing NaCl 120 mmol/L, MgCl2·6H2O 1 mmol/L, KCl 5 mmol/L, 0.1% BSA and CaCl2 2 mmol/L
Radioactive ligand: [^3H]-Mesulergine with a final concentration of around Kd value calculated by the following method
Non-specific ligand: Serotonin HCl with a final concentration of […]
(§3) The Kd value is calculated when the lot of cell membrane is changed. In advance, 0.5 μL of a 1 mmol/L compound for non-specific binding calculation dissolved in DMSO or DMSO is dispensed into a microplate, and the cell membrane is diluted with an Assay buffer. The radioactive ligand solution is serially diluted and the count is confirmed with a liquid scintillator. Assay buffer containing diluted cell membrane is dispensed into a microplate at 50 μL/well. Then, the radioactive ligand solution is dispensed into a microplate at 50 μL/well, and the plate is sealed. It is allowed to stand at 37° C. for 2 hours. During this period, 50 mmol/L Tris-HCl (pH 7.4) is dispensed into a GF/B UniFilter plate at 50 μL/well and allowed to stand at 4° C. for 1 hour or longer. After that, filtration is performed with Cell harvester (PerkinElmer). The radioactive ligand solution is dispensed into an empty well of the GF/B UniFilter plate at 10 μL/well. After the GF/B UniFilter plate is dried at room temperature, MicroScinti 20 is dispensed into the GF/B UniFilter plate at 50 μL/well to seal the plate. The GF/B UniFilter plate is allowed to stand overnight at room temperature. The radioactivity of [^3H]-Mesulergine bound to the 5-HT2C receptor is measured using Microbeta2 (PerkinElmer) at a measurement time of 1 min/well. The Saturation curve is drawn from the measured value, and the Kd value is calculated from the slope of the Scatchard Plot.
(§4) (Binding Test of the Compound According to the Present Invention)
In advance, 0.5 μL of the compound solution dissolved in DMSO is dispensed into a microplate, and the cell membrane and the hot ligand are diluted with Assay buffer, respectively. Then, the Assay buffer containing the diluted cell membrane is dispensed into a microplate at 50 μL/well. Then, the radioactive ligand solution is dispensed into a microplate at 50 μL/well, and the plate is sealed. Then, it is allowed to stand at 37° C. for 2 hours. During this period, 50 mmol/L Tris-HCl (pH 7.4) is dispensed into a GF/B UniFilter plate at 50 μL/well and allowed to stand at 4° C. for 1 hour or longer. After that, filtration is performed with Cell harvester (PerkinElmer). After the GF/B UniFilter plate is dried at room temperature, MicroScinti 20 is dispensed into the GF/B UniFilter plate at 50 μL/well, and the plate is sealed. The GF/B UniFilter plate is allowed to stand overnight at room temperature. The radioactivity of [^3H]-Mesulergine bound to the 5-HT2C receptor is measured using Microbeta2 (PerkinElmer) at a measurement time of 1 min/well. The non-specific binding is calculated from the radioactivity of […] in the presence of 500 μmol/L Serotonin HCl which is the unlabeled ligand, and the total binding is calculated from the radioactivity of [^3H]-Mesulergine in the absence of the compound according to the present invention (Vehicle). Finally, the Ki value is calculated from the dose-response curve.
(§5) (The binding activity of the compound according to the present invention is calculated from the following binding inhibition rate (%).)
(§6) [formula] • a; mean cpm of non-specific binding • b; average cpm of total binding • c; cpm in the presence of the test compound

human recombinant 5-HT2C receptor, sequence (P28335 33-458): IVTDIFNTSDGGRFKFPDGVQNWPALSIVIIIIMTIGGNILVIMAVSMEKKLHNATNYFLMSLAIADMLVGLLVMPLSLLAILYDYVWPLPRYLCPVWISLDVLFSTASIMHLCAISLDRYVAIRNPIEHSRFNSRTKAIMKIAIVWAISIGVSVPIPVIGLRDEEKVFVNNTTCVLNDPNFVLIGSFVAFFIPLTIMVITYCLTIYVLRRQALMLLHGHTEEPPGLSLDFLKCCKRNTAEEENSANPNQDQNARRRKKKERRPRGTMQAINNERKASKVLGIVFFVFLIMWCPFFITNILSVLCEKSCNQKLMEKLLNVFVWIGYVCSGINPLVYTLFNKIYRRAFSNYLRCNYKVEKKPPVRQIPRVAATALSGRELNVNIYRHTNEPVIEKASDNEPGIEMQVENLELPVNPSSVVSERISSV

| Ki [nM] | SMILES |
| --- | --- |
| 100 to 500 | CC(C)COc1ccc(CN(C2=NOC3(CCN(C)CC3)N2)C(C)c2ccc(F)cc2)cc1 (single isomer, unassigned) [Compound I-074] |
| 10 to 100 | Cc1cccc(CN(Cc2ccc(OCC(C)C)cc2)C2=NOC3(CCN(C)CC3)N2)n1 [Compound I-013] |
| 10 to 100 | Cc1nc(CN(Cc2nc3ccccc3s2)C2=NOC3(CCN(C)CC3)N2)co1 [Compound I-098] |
| < 10 | CCCOc1ccc(CC2=NOC3(CCN(C)CC34CC4)N2Cc2cc(C)n(C)n2)cc1 (racemic) [Compound I-029] |
| 100 to 500 | CCCOc1ccc(CNC2=NOC3(CCN(C)CC34CC4)N2Cc2ccn(C)n2)cc1 (racemic) [Compound I-040] |
| 10 to 100 | CC(C)COc1ccc(CN(Cc2ccc(F)cc2)C2=NC(=O)C3(CCN(C)CC3)N2)cc1 [Compound I-021] |
| 100 to 500 | CCCOc1ccc(CC2=NOC3(CCN(C)CC34CC4)N2Cc2ccn(C)n2)cc1 (single isomer, unassigned) [Compound I-045] |
| < 10 | CCCOc1ccc(CC2=NOC3(CCN(C)CC34CC4)N2Cc2ccn(C)n2)cc1 (single isomer, unassigned) [Compound I-044] |
| 100 to 500 | Cc1nc(CN(Cc2ccc(OCC(C)C)cc2)C2=NC3(CCNCC3)ON2C)co1 [Compound I-051] |

| SMILES | Ki [nM] |
| --- | --- |
| Cc1nc(CN(Cc2csc3ccccc23)C2=NOC3(CCN(C)CC3)N2)co1 [Compound I-122] | < 10 |
| CN1CCC2(CC1)NC(N(Cc1ccc(OCC(F)(F)F)cc1)Cc1coc(CF)n1)=NO2 [Compound I-132] | < 10 |
| CN1CCC2(CC1)NC(N(Cc1ccc(OCC(F)(F)F)cc1)Cc1coc(C3CC3)n1)=NO2 [Compound I-086] | < 10 |
| Cc1nc(CN(Cc2ccc(OCC(F)F)cc2)C2=NOC3(CCN(C)CC3)N2)co1 [Compound I-066] | < 10 |
| CC(C)COc1ccc(CN(Cc2cnn(C)n2)C2=NOC3(CCN(C)CC3)N2)cc1 [Compound I-072] | < 10 |
| Cc1ccc(CN(Cc2ccc(OCC(C)C)cc2)C2=NOC3(CCN(C)CC3)N2)nc1 [Compound I-016] | < 10 |
| CN1CCC2(CC1)NC(N(Cc1ccc(OCC(F)(F)C(F)F)cc1)Cc1ccn(C)n1)=NO2 [Compound I-010] | < 10 |

Biological target: human recombinant 5-HT2A receptor (Homo sapiens (Human), UniProt P28223)
Experiment: 5-HT2A receptor binding inhibition test ([3H]-Ketanserin)
Conditions: Jump-In HEK cell membrane, 25° C. 1.5 hours, read-out: h-5-HT2A Ki
Method: Test Example 1: 5-HT2A Receptor Binding Inhibition Test
as §1
Cell membrane: 15 μg of Jump-In HEK cell membrane (expressing human recombinant 5-HT2A receptor) per well
as §2
Radioactive ligand: [^3H]-Ketanserin with a final concentration of around Kd value calculated by the following method
Non-specific ligand: Serotonin HCl with a final concentration of 500 μmol/L
as §3, with “at room temperature (25° C.)” for “at 37° C.”, “for 1.5” for “for 2”, “of [^3H]-Ketanserin” for “of [^3H]-Mesulergine”, “the 5-HT2A” for “the 5-HT2C”
as §4
In advance, 0.5 μL of the compound solution dissolved in DMSO is dispensed into a microplate, and the cell membrane and the hot ligand are diluted with Assay buffer, respectively. Then, the Assay buffer containing the diluted cell membrane is dispensed into a microplate at 50 μL/well. Then, the radioactive ligand solution is dispensed into a microplate at 50 μL/well, and the plate is sealed. Then, it is allowed to stand at room temperature (25° C.) for 1.5 hours. During this period, 50 mmol/L Tris-HCl (pH 7.4) is dispensed into a GF/B UniFilter plate at 50 μL/well and allowed to stand at 4° C. for 1 hour or longer. After that, filtration is performed with Cell harvester (PerkinElmer). After the GF/B UniFilter plate is dried at room temperature, MicroScinti 20 is dispensed into the GF/B UniFilter plate at 50 μL/well to seal the plate. The GF/B UniFilter plate is allowed to stand overnight at room temperature. The radioactivity of [^3H]-Ketanserin bound to the 5-HT2A receptor is measured using Microbeta2 (PerkinElmer) at a measurement time of 1 min/well. The non-specific binding is calculated from the radioactivity of [^3H]-Ketanserin in the presence of 500 μmol/L Serotonin HCl which is the unlabeled ligand, and the total binding is calculated from the radioactivity of [^3H]-Ketanserin in the absence of the compound according to the present invention (Vehicle). Finally, the Ki value is calculated from the dose-response curve.
as §5, §6

human recombinant 5-HT2A receptor, sequence (P28223 whole entry): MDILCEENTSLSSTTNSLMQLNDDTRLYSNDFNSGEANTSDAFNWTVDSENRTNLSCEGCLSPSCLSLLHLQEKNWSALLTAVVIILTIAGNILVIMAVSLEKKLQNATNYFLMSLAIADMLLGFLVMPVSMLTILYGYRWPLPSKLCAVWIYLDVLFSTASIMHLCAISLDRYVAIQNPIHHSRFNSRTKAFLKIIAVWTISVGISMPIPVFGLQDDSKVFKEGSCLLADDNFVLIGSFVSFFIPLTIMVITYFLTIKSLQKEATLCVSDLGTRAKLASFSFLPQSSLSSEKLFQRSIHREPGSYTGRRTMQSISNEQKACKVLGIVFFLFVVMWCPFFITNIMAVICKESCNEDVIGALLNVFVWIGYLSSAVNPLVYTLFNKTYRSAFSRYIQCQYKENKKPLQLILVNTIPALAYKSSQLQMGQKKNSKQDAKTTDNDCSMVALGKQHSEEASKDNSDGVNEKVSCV

| Ki [nM] | SMILES |
| --- | --- |
| 100 to 500 | CC(C)COc1ccc(CN(C2=NOC3(CCN(C)CC3)N2)C(C)c2ccc(F)cc2)cc1 (single isomer, unassigned) [Compound I-074] |
| 10 to 100 | Cc1cccc(CN(Cc2ccc(OCC(C)C)cc2)C2=NOC3(CCN(C)CC3)N2)n1 [Compound I-013] |
| < 10 | Cc1nc(CN(Cc2nc3ccccc3s2)C2=NOC3(CCN(C)CC3)N2)co1 [Compound I-098] |
| < 10 | CCCOc1ccc(CC2=NOC3(CCN(C)CC34CC4)N2Cc2cc(C)n(C)n2)cc1 (racemic) [Compound I-029] |
| 100 to 500 | CCCOc1ccc(CNC2=NOC3(CCN(C)CC34CC4)N2Cc2ccn(C)n2)cc1 (racemic) [Compound I-040] |
| < 10 | CC(C)COc1ccc(CN(Cc2ccc(F)cc2)C2=NC(=O)C3(CCN(C)CC3)N2)cc1 [Compound I-021] |
| 10 to 100 | CCCOc1ccc(CC2=NOC3(CCN(C)CC34CC4)N2Cc2ccn(C)n2)cc1 (single isomer, unassigned) [Compound I-045] |
| < 10 | CCCOc1ccc(CC2=NOC3(CCN(C)CC34CC4)N2Cc2ccn(C)n2)cc1 (single isomer, unassigned) [Compound I-044] |
| 100 to 500 | Cc1nc(CN(Cc2ccc(OCC(C)C)cc2)C2=NC3(CCNCC3)ON2C)co1 [Compound I-051] |

| SMILES | Ki [nM] |
| --- | --- |
| Cc1nc(CN(Cc2csc3ccccc23)C2=NOC3(CCN(C)CC3)N2)co1 [Compound I-122] | < 10 |
| CN1CCC2(CC1)NC(N(Cc1ccc(OCC(F)(F)F)cc1)Cc1coc(CF)n1)=NO2 [Compound I-132] | < 10 |
| CN1CCC2(CC1)NC(N(Cc1ccc(OCC(F)(F)F)cc1)Cc1coc(C3CC3)n1)=NO2 [Compound I-086] | < 10 |
| Cc1nc(CN(Cc2ccc(OCC(F)F)cc2)C2=NOC3(CCN(C)CC3)N2)co1 [Compound I-066] | < 10 |
| CC(C)COc1ccc(CN(Cc2cnn(C)n2)C2=NOC3(CCN(C)CC3)N2)cc1 [Compound I-072] | < 10 |
| Cc1ccc(CN(Cc2ccc(OCC(C)C)cc2)C2=NOC3(CCN(C)CC3)N2)nc1 [Compound I-016] | < 10 |
| CN1CCC2(CC1)NC(N(Cc1ccc(OCC(F)(F)C(F)F)cc1)Cc1ccn(C)n1)=NO2 [Compound I-010] | < 10 |

From patent publication US20250026765A1, “SPIROHETEROCYCLE DERIVATIVE HAVING SEROTONIN RECEPTOR BINDING ACTIVITY” (Shionogi & Co., Ltd., priority 2021, published 2025)
